Measurements taken from PubChem BioAssay AID2060902 (Molecular Pharmacology Branch, DTP, NCI, 2025).

System: 485368-065-R3-J5-PDC spheroids with HUVEC/MSC, viability
Test: Anticancer human tumor 485368-065-R3-J5-PDC patient-derived pancreatic carcinoma cell line growth inhibition [RAS]
Conditions: for viability, T/C: stronger effect = lower value
Method in brief: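 Tumour cells grown as complex spheroids with HUVEC endothelial cells and mesenchymal stem cells, treated with RAS pathway inhibitor combinations. Each agent spans half-log steps from near clinical Cmax, or 10 microM where Cmax is unknown.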

[1] = curve of first compound, second compound 0.00316 µM
[2] = curve of first compound, second compound 0.01 µM
[3] = curve of first compound, second compound 0.0316 µM
[4] = curve of first compound, second compound 0.1 µM
[5] = curve of first compound, second compound 0.316 µM
[6] = curve of first compound, second compound 1 µM
[7] = second compound 0.00316 µM, first compound 0.0316 µM
[8] = second compound 0.00316 µM, first compound 0.1 µM
[9] = second compound 0.00316 µM, first compound 0.316 µM
[10] = second compound 0.00316 µM, first compound 1 µM
[11] = second compound 0.00316 µM, first compound 3.16 µM
[12] = second compound 0.00316 µM, first compound 10 µM
[13] = second compound 0.01 µM, first compound 0.0316 µM
[14] = second compound 0.01 µM, first compound 0.1 µM
[15] = second compound 0.01 µM, first compound 0.316 µM
[16] = second compound 0.01 µM, first compound 1 µM
[17] = second compound 0.01 µM, first compound 3.16 µM
[18] = second compound 0.01 µM, first compound 10 µM
[19] = second compound 0.0316 µM, first compound 0.0316 µM
[20] = second compound 0.0316 µM, first compound 0.1 µM
[21] = second compound 0.0316 µM, first compound 0.316 µM
[22] = second compound 0.0316 µM, first compound 1 µM
[23] = second compound 0.0316 µM, first compound 3.16 µM
[24] = second compound 0.0316 µM, first compound 10 µM
[25] = second compound 0.1 µM, first compound 0.0316 µM
[26] = second compound 0.1 µM, first compound 0.1 µM
[27] = second compound 0.1 µM, first compound 0.316 µM
[28] = second compound 0.1 µM, first compound 1 µM
[29] = second compound 0.1 µM, first compound 3.16 µM
[30] = second compound 0.1 µM, first compound 10 µM
[31] = second compound 0.316 µM, first compound 0.0316 µM
[32] = second compound 0.316 µM, first compound 0.1 µM
[33] = second compound 0.316 µM, first compound 0.316 µM
[34] = second compound 0.316 µM, first compound 1 µM
[35] = second compound 0.316 µM, first compound 3.16 µM
[36] = second compound 0.316 µM, first compound 10 µM
[37] = second compound 1 µM, first compound 0.0316 µM
[38] = second compound 1 µM, first compound 0.1 µM
[39] = second compound 1 µM, first compound 0.316 µM
[40] = second compound 1 µM, first compound 1 µM
[41] = second compound 1 µM, first compound 3.16 µM
[42] = second compound 1 µM, first compound 10 µM
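Also: spheroids exposed to agents for seven days before readout.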

Compound CC(=O)OC12COC1CC(O)C1(C)C(=O)C(O)C3=C(C)C(OC(=O)C(O)C(NC(=O)OC(C)(C)C)c4ccccc4)CC(O)(C(OC(=O)c4ccccc4)C21)C3(C)C (stereo not given) + CCn1c(-c2cc(N3CCN(C)CC3)cnc2C(C)OC)c2c3cc(ccc31)-c1csc(n1)CC(NC(=O)C1CC1C)C(=O)N1CCCC(N1)C(=O)OCC(C)(C)C2 has an IC50 (curve of first compound, second compound 0.000949 µM) of under 31.6 nM, an IC50 (curve of first compound, second compound 0.003 µM) of under 31.6 nM and an IC50 (curve of first compound, second compound 0.00949 µM) of under 31.6 nM. For the same compound, the IC50 (curve of first compound, second compound 0.03 µM) was under 31.6 nM, the IC50 (curve of first compound, second compound 0.0949 µM) was under 31.6 nM and the IC50 (curve of first compound, second compound 0.3 µM) was under 31.6 nM. For the same compound, the viability, T/C (second compound 0.000949 µM, first compound 0.0316 µM) was 11.7%, the viability, T/C (second compound 0.000949 µM, first compound 0.1 µM) was 10.4% and the viability, T/C (second compound 0.000949 µM, first compound 0.316 µM) was 12.1%. It also gave a viability, T/C (second compound 0.000949 µM, first compound 1 µM) of 14.3%, a viability, T/C (second compound 0.000949 µM, first compound 3.16 µM) of 15.2% and a viability, T/C (second compound 0.000949 µM, first compound 10 µM) of 19.9%. It also gave a viability, T/C (second compound 0.003 µM, first compound 0.0316 µM) of 10.7%, a viability, T/C (second compound 0.003 µM, first compound 0.1 µM) of 13.2% and a viability, T/C (second compound 0.003 µM, first compound 0.316 µM) of 12.2%. It also gave a viability, T/C (second compound 0.003 µM, first compound 1 µM) of 14.1%, a viability, T/C (second compound 0.003 µM, first compound 3.16 µM) of 15.3% and a viability, T/C (second compound 0.003 µM, first compound 10 µM) of 13.6%. For the same compound, the viability, T/C (second compound 0.00949 µM, first compound 0.0316 µM) was 9.77%, the viability, T/C (second compound 0.00949 µM, first compound 0.1 µM) was 12.6% and the viability, T/C (second compound 0.00949 µM, first compound 0.316 µM) was 10%. The viability, T/C (second compound 0.00949 µM, first compound 1 µM) was 8.97%, the viability, T/C (second compound 0.00949 µM, first compound 3.16 µM) was 11.4% and the viability, T/C (second compound 0.00949 µM, first compound 10 µM) was 10.5%. For the same compound, the viability, T/C (second compound 0.03 µM, first compound 0.0316 µM) was 7.89%, the viability, T/C (second compound 0.03 µM, first compound 0.1 µM) was 8.87% and the viability, T/C (second compound 0.03 µM, first compound 0.316 µM) was 8.33%. For the same compound, the viability, T/C (second compound 0.03 µM, first compound 1 µM) was 9.73%, the viability, T/C (second compound 0.03 µM, first compound 3.16 µM) was 10.6% and the viability, T/C (second compound 0.03 µM, first compound 10 µM) was 10.7%. For the same compound, the viability, T/C (second compound 0.0949 µM, first compound 0.0316 µM) was 7.57%, the viability, T/C (second compound 0.0949 µM, first compound 0.1 µM) was 8.27% and the viability, T/C (second compound 0.0949 µM, first compound 0.316 µM) was 7.87%. It also gave a viability, T/C (second compound 0.0949 µM, first compound 1 µM) of 7.97%, a viability, T/C (second compound 0.0949 µM, first compound 3.16 µM) of 10.9% and a viability, T/C (second compound 0.0949 µM, first compound 10 µM) of 8.11%. The viability, T/C (second compound 0.3 µM, first compound 0.0316 µM) was 7.3%, the viability, T/C (second compound 0.3 µM, first compound 0.1 µM) was 7.09% and the viability, T/C (second compound 0.3 µM, first compound 0.316 µM) was 7.44%. It also gave a viability, T/C (second compound 0.3 µM, first compound 1 µM) of 8.55%, a viability, T/C (second compound 0.3 µM, first compound 3.16 µM) of 10.2% and a viability, T/C (second compound 0.3 µM, first compound 10 µM) of 6.81%.

Compound CCC(CC)c1cc(NC2CCC(N)C2)n2nccc2n1 (stereo not given) + C=CC(=O)N1CCN(c2nc(OCC3CCCN3C)nc3c(F)c(-c4nc(N)cc(C)c4C(F)(F)F)c(Cl)cc23)C(C)C1 has an IC50 [1] of 1950 nM, an IC50 [2] of 1990 nM and an IC50 [3] of 1950 nM. It also gave an IC50 [4] of 1970 nM, an IC50 [5] of 1940 nM and an IC50 [6] of 1980 nM. For the same compound, the viability, T/C [7] was 107%, the viability, T/C [8] was 93% and the viability, T/C [9] was 114%. It also gave a viability, T/C [10] of 133%, a viability, T/C [11] of 3.52% and a viability, T/C [12] of 6.56%. It also gave a viability, T/C [13] of 118%, a viability, T/C [14] of 108% and a viability, T/C [15] of 109%. It also gave a viability, T/C [16] of 136%, a viability, T/C [17] of 3.73% and a viability, T/C [18] of 5.65%. The viability, T/C [19] was 101%, the viability, T/C [20] was 109% and the viability, T/C [21] was 112%. It also gave a viability, T/C [22] of 134%, a viability, T/C [23] of 3.48% and a viability, T/C [24] of 4.43%. For the same compound, the viability, T/C [25] was 93.7%, the viability, T/C [26] was 104% and the viability, T/C [27] was 117%. It also gave a viability, T/C [28] of 143%, a viability, T/C [29] of 3.81% and a viability, T/C [30] of 6.8%. For the same compound, the viability, T/C [31] was 94.8%, the viability, T/C [32] was 108% and the viability, T/C [33] was 106%. It also gave a viability, T/C [34] of 132%, a viability, T/C [35] of 3.87% and a viability, T/C [36] of 7.93%. For the same compound, the viability, T/C [37] was 97.5%, the viability, T/C [38] was 92.3% and the viability, T/C [39] was 120%. The viability, T/C [40] was 133%, the viability, T/C [41] was 5.49% and the viability, T/C [42] was 10.8%.

CC(C)NCC(C(=O)N1CCN(c2ncnc3c2C(C)CC3O)CC1)c1ccc(Cl)cc1 (stereo not given) + C=CC(=O)N1CCN(c2nc(OCC3CCCN3C)nc3c(F)c(-c4nc(N)cc(C)c4C(F)(F)F)c(Cl)cc23)C(C)C1 showed an IC50 [1] of over 10000 nM, an IC50 [2] of over 10000 nM and an IC50 [3] of over 10000 nM. It also gave an IC50 [4] of over 10000 nM, an IC50 [5] of over 10000 nM and an IC50 [6] of 9610 nM. The viability, T/C [7] was 101%, the viability, T/C [8] was 93.7% and the viability, T/C [9] was 94.7%. For the same compound, the viability, T/C [10] was 82.9%, the viability, T/C [11] was 70.8% and the viability, T/C [12] was 61.6%. The viability, T/C [13] was 109%, the viability, T/C [14] was 101% and the viability, T/C [15] was 91.4%. For the same compound, the viability, T/C [16] was 75.8%, the viability, T/C [17] was 72.9% and the viability, T/C [18] was 53.5%. For the same compound, the viability, T/C [19] was 102%, the viability, T/C [20] was 124% and the viability, T/C [21] was 93.3%. For the same compound, the viability, T/C [22] was 88.2%, the viability, T/C [23] was 68.6% and the viability, T/C [24] was 57%. It also gave a viability, T/C [25] of 102%, a viability, T/C [26] of 105% and a viability, T/C [27] of 93.1%. The viability, T/C [28] was 78.9%, the viability, T/C [29] was 70.5% and the viability, T/C [30] was 57.8%. It also gave a viability, T/C [31] of 100%, a viability, T/C [32] of 105% and a viability, T/C [33] of 97.3%. The viability, T/C [34] was 78.3%, the viability, T/C [35] was 71.8% and the viability, T/C [36] was 52.9%. It also gave a viability, T/C [37] of 101%, a viability, T/C [38] of 90.6% and a viability, T/C [39] of 102%. It also gave a viability, T/C [40] of 84.6%, a viability, T/C [41] of 68% and a viability, T/C [42] of 49.1%.

In the case of NC1c2ccccc2OC12CCN(c1cnc3c(N4CCCc5ncccc54)n[nH]c3n1)CC2 (stereo not given), the viability, T/C (compound 0.0316 µM) is reported as 92.8% [middle of 4 runs], the viability, T/C (compound 0.1 µM) is reported as 82.1% [middle of 4 runs] and the viability, T/C (compound 1 µM) is reported as 70.1% [middle of 4 runs]. The IC50 (curve of compound) was over 10000 nM.
